Reference: ChEMBL document CHEMBL4376839, “Structure-Based Optimization of Coumarin hA3 Adenosine Receptor Antagonists” (J Med Chem, 2020)

Target: T1, Adenosine receptor A2b (Homo sapiens, UniProt P29275)
T1 sequence (P29275 whole entry): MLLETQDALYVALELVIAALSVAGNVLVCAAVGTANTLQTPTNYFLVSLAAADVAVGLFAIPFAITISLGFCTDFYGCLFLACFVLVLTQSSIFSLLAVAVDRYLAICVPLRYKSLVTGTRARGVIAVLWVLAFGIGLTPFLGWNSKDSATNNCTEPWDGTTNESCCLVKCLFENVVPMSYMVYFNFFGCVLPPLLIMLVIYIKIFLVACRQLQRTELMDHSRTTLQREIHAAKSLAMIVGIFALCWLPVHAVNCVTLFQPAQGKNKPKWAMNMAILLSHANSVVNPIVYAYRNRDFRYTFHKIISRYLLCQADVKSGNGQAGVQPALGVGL
Test: Antagonist activity at human adenosine receptor A2B expressed in CHO cells assessed as inhibition of NECA-stimulated adenylyl cyclase activity

| Structure (SMILES) | IC50 |
| --- | --- |
| COc1cc(-c2cc3cccc(C)c3oc2=O)cc(OC)c1OC | > 30 µM |
| COc1cccc2cc(-c3ccc([N+](=O)[O-])cc3)c(=O)oc12 | > 30 µM |
| Cc1cccc2cc(-c3ccc([N+](=O)[O-])cc3)c(=O)oc12 | > 30 µM |
| CCOc1cccc2cc(-c3ccccc3)c(=O)oc12 | > 30 µM |
| CC(=O)Oc1cccc2cc(-c3ccccc3)c(=O)oc12 | > 30 µM |
| CCOc1cccc2cc(-c3ccc([N+](=O)[O-])cc3)c(=O)oc12 | > 30 µM |
| COc1ccc(-c2cc3cccc(OC)c3oc2=O)cc1 | > 30 µM |
| CCOc1cccc2cc(-c3ccc(OC)cc3OC)c(=O)oc12 | > 30 µM |
| CC(=O)Oc1ccc2cc(-c3ccccc3)c(=O)oc2c1OC(C)=O | > 30 µM |
| CC(=O)Oc1ccc(-c2cc3cccc(OC(C)=O)c3oc2=O)cc1OC(C)=O | > 30 µM |

Further lines, results first:

| IC50 | Structure (SMILES) |
| --- | --- |
| > 30 µM | CCOc1cccc2cc(-c3ccc(C)cc3)c(=O)oc12 |
| > 30 µM | COc1ccc(-c2cc3cccc(C)c3oc2=O)cc1OC |
| > 30 µM | O=c1oc2c(O)cccc2cc1-c1ccc(O)c(O)c1 |
| > 30 µM | CCOc1cccc2cc(-c3ccc(OC)c(OC)c3)c(=O)oc12 |
| > 30 µM | O=c1oc2c(O)c(O)ccc2cc1-c1ccc(O)cc1 |

Target: T2, Adenosine receptor A3 (Homo sapiens, UniProt P0DMS8)
T2 sequence (P0DMS8 whole entry): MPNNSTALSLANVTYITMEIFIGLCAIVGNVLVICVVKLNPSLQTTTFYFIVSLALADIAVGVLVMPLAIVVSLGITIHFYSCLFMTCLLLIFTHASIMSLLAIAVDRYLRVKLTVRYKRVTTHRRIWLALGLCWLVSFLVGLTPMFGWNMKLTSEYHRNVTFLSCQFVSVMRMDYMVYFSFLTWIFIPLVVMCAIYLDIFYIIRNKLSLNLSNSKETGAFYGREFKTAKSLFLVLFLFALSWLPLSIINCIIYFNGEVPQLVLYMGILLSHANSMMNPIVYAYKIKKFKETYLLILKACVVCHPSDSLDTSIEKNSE
Test: Displacement of [3H]HEMADO from human adenosine receptor A3 expressed in CHO cell membranes by radioligand competition assay

| Structure (SMILES) | Ki |
| --- | --- |
| COc1cc(-c2cc3cccc(C)c3oc2=O)cc(OC)c1OC | 9.82 µM |
| COc1cccc2cc(-c3ccc([N+](=O)[O-])cc3)c(=O)oc12 | 8.02 µM |
| Cc1cccc2cc(-c3ccc([N+](=O)[O-])cc3)c(=O)oc12 | > 100 µM |
| CCOc1cccc2cc(-c3ccccc3)c(=O)oc12 | 22.5 µM |
| CC(=O)Oc1cccc2cc(-c3ccccc3)c(=O)oc12 | 6.86 µM |
| CCOc1cccc2cc(-c3ccc([N+](=O)[O-])cc3)c(=O)oc12 | > 100 µM |
| COc1ccc(-c2cc3cccc(OC)c3oc2=O)cc1 | 5.06 µM |
| CCOc1cccc2cc(-c3ccc(OC)cc3OC)c(=O)oc12 | 16.6 µM |
| CC(=O)Oc1ccc2cc(-c3ccccc3)c(=O)oc2c1OC(C)=O | 5.17 µM |
| CC(=O)Oc1ccc(-c2cc3cccc(OC(C)=O)c3oc2=O)cc1OC(C)=O | 22 µM |

More lines, now with the values ahead:

| Ki | Structure (SMILES) |
| --- | --- |
| 3.93 µM | CCOc1cccc2cc(-c3ccc(C)cc3)c(=O)oc12 |
| 13.6 µM | COc1ccc(-c2cc3cccc(C)c3oc2=O)cc1OC |
| 23.6 µM | O=c1oc2c(O)cccc2cc1-c1ccc(O)c(O)c1 |
| 13.7 µM | CCOc1cccc2cc(-c3ccc(OC)c(OC)c3)c(=O)oc12 |
| 9.16 µM | O=c1oc2c(O)c(O)ccc2cc1-c1ccc(O)cc1 |

Target: T3, Adenosine receptor A1 (Homo sapiens, UniProt P30542)
T3 sequence (P30542 whole entry): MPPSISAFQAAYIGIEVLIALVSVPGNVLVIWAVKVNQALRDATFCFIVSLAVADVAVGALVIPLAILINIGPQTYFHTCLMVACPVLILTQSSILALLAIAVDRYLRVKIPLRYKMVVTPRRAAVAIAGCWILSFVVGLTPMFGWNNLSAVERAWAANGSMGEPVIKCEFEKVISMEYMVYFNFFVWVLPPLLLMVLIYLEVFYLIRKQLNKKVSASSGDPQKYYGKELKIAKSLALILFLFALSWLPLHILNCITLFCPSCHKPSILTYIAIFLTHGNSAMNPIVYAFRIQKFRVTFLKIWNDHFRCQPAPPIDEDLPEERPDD
Test: Displacement of [3H]CCPA from human adenosine receptor A1 expressed in CHO cell membranes by radioligand competition assay

| Structure (SMILES) | Ki |
| --- | --- |
| COc1cc(-c2cc3cccc(C)c3oc2=O)cc(OC)c1OC | > 60 µM |
| COc1cccc2cc(-c3ccc([N+](=O)[O-])cc3)c(=O)oc12 | > 100 µM |
| Cc1cccc2cc(-c3ccc([N+](=O)[O-])cc3)c(=O)oc12 | > 100 µM |
| CCOc1cccc2cc(-c3ccccc3)c(=O)oc12 | 22.1 µM |
| CC(=O)Oc1cccc2cc(-c3ccccc3)c(=O)oc12 | 6.93 µM |
| CCOc1cccc2cc(-c3ccc([N+](=O)[O-])cc3)c(=O)oc12 | > 100 µM |
| COc1ccc(-c2cc3cccc(OC)c3oc2=O)cc1 | > 100 µM |
| CCOc1cccc2cc(-c3ccc(OC)cc3OC)c(=O)oc12 | > 100 µM |
| CC(=O)Oc1ccc2cc(-c3ccccc3)c(=O)oc2c1OC(C)=O | 8.56 µM |
| CC(=O)Oc1ccc(-c2cc3cccc(OC(C)=O)c3oc2=O)cc1OC(C)=O | > 100 µM |

The remaining lines, values ahead:

| Ki | Structure (SMILES) |
| --- | --- |
| > 100 µM | CCOc1cccc2cc(-c3ccc(C)cc3)c(=O)oc12 |
| > 100 µM | COc1ccc(-c2cc3cccc(C)c3oc2=O)cc1OC |
| 6.2 µM | O=c1oc2c(O)cccc2cc1-c1ccc(O)c(O)c1 |
| > 100 µM | CCOc1cccc2cc(-c3ccc(OC)c(OC)c3)c(=O)oc12 |
| 12.5 µM | O=c1oc2c(O)c(O)ccc2cc1-c1ccc(O)cc1 |

Target: T1, Adenosine receptor A2b
Test: Antagonist activity at human adenosine receptor A2B expressed in CHO cells assessed as inhibition of NECA-stimulated adenylyl cyclase activity
Remark: another data set of the same source

| Structure (SMILES) | Ki |
| --- | --- |
| COc1cc(-c2cc3cccc(C)c3oc2=O)cc(OC)c1OC | > 30 µM |
| COc1cccc2cc(-c3ccc([N+](=O)[O-])cc3)c(=O)oc12 | > 30 µM |
| Cc1cccc2cc(-c3ccc([N+](=O)[O-])cc3)c(=O)oc12 | > 30 µM |
| CCOc1cccc2cc(-c3ccccc3)c(=O)oc12 | > 30 µM |
| CC(=O)Oc1cccc2cc(-c3ccccc3)c(=O)oc12 | > 30 µM |
| CCOc1cccc2cc(-c3ccc([N+](=O)[O-])cc3)c(=O)oc12 | > 30 µM |
| COc1ccc(-c2cc3cccc(OC)c3oc2=O)cc1 | > 30 µM |
| CCOc1cccc2cc(-c3ccc(OC)cc3OC)c(=O)oc12 | > 30 µM |
| CC(=O)Oc1ccc2cc(-c3ccccc3)c(=O)oc2c1OC(C)=O | > 30 µM |
| CC(=O)Oc1ccc(-c2cc3cccc(OC(C)=O)c3oc2=O)cc1OC(C)=O | > 30 µM |

Second part, the compound after the results:

| Ki | Structure (SMILES) |
| --- | --- |
| > 30 µM | CCOc1cccc2cc(-c3ccc(C)cc3)c(=O)oc12 |
| > 30 µM | COc1ccc(-c2cc3cccc(C)c3oc2=O)cc1OC |
| > 30 µM | O=c1oc2c(O)cccc2cc1-c1ccc(O)c(O)c1 |
| > 30 µM | CCOc1cccc2cc(-c3ccc(OC)c(OC)c3)c(=O)oc12 |
| > 30 µM | O=c1oc2c(O)c(O)ccc2cc1-c1ccc(O)cc1 |

Target: Adenosine receptor A2a (Homo sapiens, UniProt P29274)
Test: Displacement of [3H]NECA from human adenosine receptor A2A expressed in CHO cell membranes by radioligand competition assay

Chain of Adenosine receptor A2a (P29274 whole entry): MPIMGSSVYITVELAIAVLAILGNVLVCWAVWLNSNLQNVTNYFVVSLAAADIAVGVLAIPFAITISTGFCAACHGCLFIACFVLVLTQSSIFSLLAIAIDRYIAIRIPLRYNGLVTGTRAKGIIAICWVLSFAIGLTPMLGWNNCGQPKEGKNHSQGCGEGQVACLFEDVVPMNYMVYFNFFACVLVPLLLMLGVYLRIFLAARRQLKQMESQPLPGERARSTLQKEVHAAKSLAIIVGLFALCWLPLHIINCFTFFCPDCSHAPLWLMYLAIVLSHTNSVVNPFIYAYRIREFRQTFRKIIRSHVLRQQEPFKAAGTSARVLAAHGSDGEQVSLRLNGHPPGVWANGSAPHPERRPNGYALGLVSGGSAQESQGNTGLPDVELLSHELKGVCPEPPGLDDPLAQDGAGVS

| Structure (SMILES) | Ki |
| --- | --- |
| COc1cc(-c2cc3cccc(C)c3oc2=O)cc(OC)c1OC | 32.9 µM |
| COc1cccc2cc(-c3ccc([N+](=O)[O-])cc3)c(=O)oc12 | 59.1 µM |
| Cc1cccc2cc(-c3ccc([N+](=O)[O-])cc3)c(=O)oc12 | > 100 µM |
| CCOc1cccc2cc(-c3ccccc3)c(=O)oc12 | 55 µM |
| CC(=O)Oc1cccc2cc(-c3ccccc3)c(=O)oc12 | 35.7 µM |
| CCOc1cccc2cc(-c3ccc([N+](=O)[O-])cc3)c(=O)oc12 | > 100 µM |
| COc1ccc(-c2cc3cccc(OC)c3oc2=O)cc1 | > 100 µM |
| CCOc1cccc2cc(-c3ccc(OC)cc3OC)c(=O)oc12 | > 100 µM |
| CC(=O)Oc1ccc2cc(-c3ccccc3)c(=O)oc2c1OC(C)=O | 21.1 µM |
| CC(=O)Oc1ccc(-c2cc3cccc(OC(C)=O)c3oc2=O)cc1OC(C)=O | 64.4 µM |

Now from value to compound:

| Ki | Structure (SMILES) |
| --- | --- |
| > 60 µM | CCOc1cccc2cc(-c3ccc(C)cc3)c(=O)oc12 |
| 25.9 µM | COc1ccc(-c2cc3cccc(C)c3oc2=O)cc1OC |
| 14 µM | O=c1oc2c(O)cccc2cc1-c1ccc(O)c(O)c1 |
| > 100 µM | CCOc1cccc2cc(-c3ccc(OC)c(OC)c3)c(=O)oc12 |
| 55.3 µM | O=c1oc2c(O)c(O)ccc2cc1-c1ccc(O)cc1 |

Target: T2, Adenosine receptor A3
Test: Antagonist activity at human adenosine receptor A3 expressed in CHO cells assessed as suppression of NECA-induced decrease of cAMP accumulation by Glo-sensor cAMP assay
Format: functional, cell-based

| IC50 | Structure (SMILES) |
| --- | --- |
| 18.4 µM | CCOc1cccc2cc(-c3ccc(C)cc3)c(=O)oc12 |
| 25.3 µM | COc1ccc(-c2cc3cccc(OC)c3oc2=O)cc1 |
